Measurements taken from US10689374B1, “Pyrimidine-thiazolidinone derivatives” (UNITED ARAB EMIRATES UNIVERSITY, priority 2019, dated 2020).
“Also recorded” adds a separate entry of the source. Counter-ions that a name gives are not always drawn.

Columns and labels:
β TC6 cells = assay: In vitro glucose uptake assay; format: cell-based; settings: each compound at a concentration of 10 μM
Description: FIG. 5A is a bar graph comparing the results of pioglitazone with compounds 130a-g, each at a concentration of 10 μM, for effect on glucose uptake from β TC6 cells.
FIG. 5B is a bar graph comparing the results of pioglitazone with compounds 112, 105a-d, 121, 117, 119, and 126, each at a concentration of 10 μM, for effect on glucose uptake from β TC6 cells.
FIG. 5C is a bar graph comparing the results of metformin with compound 138, each at a concentration of 10 μM, for effect on glucose uptake from β TC6 cells.
The results of the in vitro glucose uptake study are depicted in FIGS. 5A-5C.

βTC6 cells = assay: Insulin secretion from βTC6 cells (high range insulin Sandwich ELISA kit); format: cell-based; settings: compounds at 10^−12, 10^−9, 10^−6 M; for basal insulin secretion: absence of glucose; for glucose stimulated insulin release: presence of 2.8 mM glucose
Description: Secretion of insulin by βTC6 cells was measured using the high range insulin Sandwich ELISA kit.
Similarly, a variety of thiazolidinedione-2,4-dione-pyrimidine derivatives, at 10^−12, 10^−9, 10^−6 M concentrations, were investigated for their effect on insulin secretion in the absence and presence of 2.8 mM glucose from βTC6 cells. […] These compounds also increase insulin secretion in the presence of glucose and, thereby, prevent hyperglycemia.
The effects of rhodanine-pyrimidine derivatives 130a-g were also investigated at 10^−12, 10^−9, 10^−6 M concentrations, for effect on insulin secretion in absence and presence of 2.8 mM glucose in βTC6 cells.

C/N=C1/NC(=O)/C(=C\c2ccc(S(=O)(=O)Nc3ccnc(N)n3)cc2)S1 [Compound 105b]
glucose uptake (β TC6 cells): most potent activity
basal insulin secretion (βTC6 cells): significant decrease
glucose stimulated insulin release (βTC6 cells): significant increase

Nc1nccc(NS(=O)(=O)c2ccc(/C=C3/SC(=O)NC3=O)cc2)n1 [Compound 105c]
glucose uptake (β TC6 cells): most potent activity
basal insulin secretion (βTC6 cells): no effect
glucose stimulated insulin release (βTC6 cells): significantly increased

Nc1ncc(/C=C2\SC(=S)NC2=O)cn1 [Compound 130b, (Z)-5-[(2′-Aminopyrimidin-5′-yl)methylene]-2-thioxothiazolidin-4-one]
basal insulin secretion (βTC6 cells): significantly increased

O=C(O)CN1C(=O)/C(=C/c2cnc(N3CCOCC3)nc2)SC1=S [Compound 130e]
glucose uptake (β TC6 cells): most potent activity
basal insulin secretion (βTC6 cells): significant increases
glucose stimulated insulin release (βTC6 cells): significant increases

CN(C)c1ncc(/C=C2\SC(=S)N(CC(=O)O)C2=O)cn1 [Compound 130c]
glucose stimulated insulin release (βTC6 cells): significantly increased

Cc1cc(O)nc(NC(=O)CN2C(=O)/C(=C\c3ccc(F)cc3)SC2=S)n1 [Compound 126, (E)-2-[5′-(p-Fluorobenzylidene)-4′-oxo-2′-thioxothiazolidin-3′-yl]-N-(4″-hydroxy-6″-methyl-pyrimidin-2″-yl)acetamide]
glucose uptake (β TC6 cells): enhancing the glucose uptake significantly (p<0.001)
basal insulin secretion (βTC6 cells): significant decrease
glucose stimulated insulin release (βTC6 cells): significant increase

CN=C1NC(=O)/C(=C\c2cnc(Nc3cccc4ccccc34)nc2)S1 [Compound 112]
glucose uptake (β TC6 cells): most potent activity

CCCNc1ncc(/C=C2\SC(=S)N(CC(=O)O)C2=O)cn1 [Compound 130f]
glucose uptake (β TC6 cells): most potent activity
basal insulin secretion (βTC6 cells): significant increases
glucose stimulated insulin release (βTC6 cells): significant increases

CN=C1NC(=O)/C(=C\c2ccc(S(=O)(=O)[n+]3ccccc3)cc2)S1 [Compound 105a, 2-(Methylimino)-5-[4′-(N-pyridinesulfonyl)benzylidine]thiazolidin-4-one chloride salt]
glucose uptake (β TC6 cells): most potent activity
basal insulin secretion (βTC6 cells): significant decrease
glucose stimulated insulin release (βTC6 cells): significant increase

Cc1ccc(S(=O)(=O)NC(=O)Nc2nccc(NC(=O)CC3SC(=O)NC3=O)n2)cc1 (stereo not shown) [Compound 119, 2-(2′,4′-Dioxothiazolidin-5-yl)-N-[2″-(p-tosylureido)pyrimidin-4″-yl]acetamide]
glucose uptake (β TC6 cells): most potent activity
basal insulin secretion (βTC6 cells): significantly increased

Nc1nccc(NC(=O)CC2SC(=O)NC2=O)n1 (stereo not shown) [Compound 117, N-(2′-Aminopyrimidin-4′-yl)-2-(2″,4″-dioxothiazolidin-5″-yl)acetamide]
glucose uptake (β TC6 cells): most potent activity
basal insulin secretion (βTC6 cells): significantly inhibited

CC(C)Nc1ncc(/C=C2\SC(=S)N(CC(=O)O)C2=O)cn1 [Compound 130d]
basal insulin secretion (βTC6 cells): did not show any effect
glucose stimulated insulin release (βTC6 cells): did not show any effect

O=C(O)CN1C(=O)/C(=C/c2cnc(NCc3ccccc3)nc2)SC1=S [Compound 130g, (Z)-2-{5′-[2″-(Benzylamino)pyrimidin-5″-yl]methylene-4′-oxo-2′-thioxothiazolidin-3′-yl}acetic acid]
glucose uptake (β TC6 cells): most potent activity; also recorded: enhancing the glucose uptake significantly (p<0.001)
glucose stimulated insulin release (βTC6 cells): significantly increased

CN(C)c1ncc(/C=C2\SC(=S)NC2=O)cn1 [Compound 130a]
basal insulin secretion (βTC6 cells): did not show any effect
glucose stimulated insulin release (βTC6 cells): did not show any effect
